Patent US10004701B2, “Methods and compositions for treating infection” (UNIVERSITY OF ROCHESTER, priority 2012, dated 2018)
Counter-ions that a name gives are not always drawn. Like-named read-outs stand apart in the source and are kept apart here.

Tests used:
Experiment in all cases: AK assay 384-well format, Prestwick library screening
[1] = tested on: E. faecium; assay type: cell-based, Enterococcus faecium; details: 50 μM final drug concentration; for fold induction at 50 µM: Enterococcus faecium, 3 h
[2] = tested on: E. coli; assay type: cell-based, Escherichia coli; details: 50 μM final drug concentration; for fold induction at 50 µM: Escherichia coli, 3 h
[3] = tested on: S. aureus strain USA300-0114; assay type: cell-based, Staphylococcus aureus; details: 50 μM final drug concentration; for fold induction at 50 µM: Staphylococcus aureus, USA300, 3 h
[4] = tested on: E. cloacae; assay type: cell-based, Enterobacter cloacae; details: 50 μM final drug concentration; for fold induction at 50 µM: Enterobacter cloacae, 3 h
[5] = tested on: K. pneumoniae; assay type: cell-based, Klebsiella pneumoniae; details: 50 μM final drug concentration; for fold induction at 50 µM: Klebsiella pneumoniae, 3 h
[6] = tested on: P. aeruginosa; assay type: cell-based, Pseudomonas aeruginosa; details: 50 μM final drug concentration; for fold induction at 50 µM: Pseudomonas aeruginosa, 3 h
[7] = tested on: A. baumannii strain 98-37-09; assay type: cell-based, Acinetobacter baumannii; details: 50 μM final drug concentration; for fold induction at 50 µM: Acinetobacter baumannii, 983709, 3 h
[8] = planktonic, cutoff for positive-scoring molecules 3-fold increase, read-out: AK-based Prestwick Library Screening Results, E. faecium (fold increase in extracellular AK activity)
[9] = planktonic, cutoff for positive-scoring molecules 3-fold increase, read-out: AK-based Prestwick Library Screening Results, E. coli (fold increase in extracellular AK activity)
[10] = planktonic, cutoff for positive-scoring molecules 3-fold increase, read-out: AK-based Prestwick Library Screening Results, S. aureus (fold increase in extracellular AK activity)
[11] = planktonic, cutoff for positive-scoring molecules 3-fold increase, read-out: AK-based Prestwick Library Screening Results, E. cloacae (fold increase in extracellular AK activity)
[12] = planktonic, cutoff for positive-scoring molecules 3-fold increase, read-out: AK-based Prestwick Library Screening Results, K. pneumoniae (fold increase in extracellular AK activity)
[13] = planktonic, cutoff for positive-scoring molecules 3-fold increase, read-out: AK-based Prestwick Library Screening Results, P. aeruginosa (fold increase in extracellular AK activity)
[14] = planktonic, cutoff for positive-scoring molecules 3-fold increase, read-out: AK-based Prestwick Library Screening Results, A. baumannii (fold increase in extracellular AK activity)
[15] = cutoff for positive-scoring molecules 3-fold increase
[16] = planktonic E. faecium, cutoff for positive-scoring molecules 3-fold increase, read-out: AK-based Prestwick Library Screening Results, E. faecium (increase in extracellular AK activity)
[17] = planktonic E. coli, cutoff for positive-scoring molecules 3-fold increase, read-out: AK-based Prestwick Library Screening Results, E. coli (increase in extracellular AK activity)
[18] = planktonic S. aureus, cutoff for positive-scoring molecules 3-fold increase, read-out: AK-based Prestwick Library Screening Results, S. aureus (increase in extracellular AK activity)
[19] = planktonic E. cloacae, cutoff for positive-scoring molecules 3-fold increase, read-out: AK-based Prestwick Library Screening Results, E. cloacae (increase in extracellular AK activity)
[20] = planktonic K. pneumoniae, cutoff for positive-scoring molecules 3-fold increase, read-out: AK-based Prestwick Library Screening Results, K. pneumoniae (increase in extracellular AK activity)
[21] = planktonic P. aeruginosa, cutoff for positive-scoring molecules 3-fold increase, read-out: AK-based Prestwick Library Screening Results, P. aeruginosa (increase in extracellular AK activity)
[22] = planktonic A. baumannii, cutoff for positive-scoring molecules 3-fold increase, read-out: AK-based Prestwick Library Screening Results, A. baumannii (increase in extracellular AK activity)
[23] = planktonic, cutoff for positive 3-fold increase

NS(=O)(=O)c1cc2c(cc1Cl)N=C(CSCc1ccccc1)NS2(=O)=O [Benzthiazide]
fold induction at 50 µM [1, 8]: 1.4
fold induction at 50 µM [2, 9]: 0.9
fold induction at 50 µM [3, 10]: 0.8
fold induction at 50 µM [4, 11]: 1.1
fold induction at 50 µM [5, 12]: 0.8
fold induction at 50 µM [6, 13]: 0.9
fold induction at 50 µM [7, 14]: 0.9

CN(C)CCCOc1nn(Cc2ccccc2)c2ccccc12 [Benzydamine hydrochloride]
fold induction at 50 µM ([1]; planktonic E. faecium, 384-well, cutoff for positive-scoring molecules 3-fold increase, read-out: AK-based Prestwick Library Screening Results: E. faecium (increase in extracellular AK activity)): 1.1
fold induction at 50 µM ([2]; planktonic E. coli, 384-well, cutoff for positive-scoring molecules 3-fold increase, read-out: AK-based Prestwick Library Screening Results: E. coli (increase in extracellular AK activity)): 1.3
fold induction at 50 µM ([3]; planktonic S. aureus, 384-well, cutoff for positive-scoring molecules 3-fold increase, read-out: AK-based Prestwick Library Screening Results: S. aureus (increase in extracellular AK activity)): 1.1
fold induction at 50 µM ([4]; planktonic E. cloacae, 384-well, cutoff for positive-scoring molecules 3-fold increase, read-out: AK-based Prestwick Library Screening Results: E. cloacae (increase in extracellular AK activity)): 1.2
fold induction at 50 µM ([5]; planktonic K. pneumoniae, 384-well, cutoff for positive-scoring molecules 3-fold increase, read-out: AK-based Prestwick Library Screening Results: K. pneumoniae (increase in extracellular AK activity)): 1
fold induction at 50 µM ([6]; planktonic P. aeruginosa, 384-well, cutoff for positive-scoring molecules 3-fold increase, read-out: AK-based Prestwick Library Screening Results: P. aeruginosa (increase in extracellular AK activity)): 1.2
fold induction at 50 µM ([7]; planktonic A. baumannii, 384-well, cutoff for positive-scoring molecules 3-fold increase, read-out: AK-based Prestwick Library Screening Results: A. baumannii (increase in extracellular AK activity)): 1

CC1(C)S[C@@H]2[C@H](NC(=O)Cc3ccccc3)C(=O)N2[C@H]1C(=O)O [Benzylpenicillin sodium]
fold induction at 50 µM ([1]; planktonic E. faecium, positive cutoff 3-fold increase, read-out: AK-based Prestwick library screening result, E. faecium (fold increase in extracellular AK activity)): 1.7
fold induction at 50 µM ([2]; planktonic E. coli, positive cutoff 3-fold increase, read-out: AK-based Prestwick library screening result, E. coli (fold increase in extracellular AK activity)): 11.3
fold induction at 50 µM ([3]; planktonic S. aureus, positive cutoff 3-fold increase, read-out: AK-based Prestwick library screening result, S. aureus (fold increase in extracellular AK activity)): 0.8
fold induction at 50 µM ([4]; planktonic E. cloacae, positive cutoff 3-fold increase, read-out: AK-based Prestwick library screening result, E. cloacae (fold increase in extracellular AK activity)): 1.2
fold induction at 50 µM ([5]; planktonic K. pneumoniae, positive cutoff 3-fold increase, read-out: AK-based Prestwick library screening result, K. pneumoniae (fold increase in extracellular AK activity)): 0.6
fold induction at 50 µM ([6]; planktonic P. aeruginosa, positive cutoff 3-fold increase, read-out: AK-based Prestwick library screening result, P. aeruginosa (fold increase in extracellular AK activity)): 0.7
fold induction at 50 µM ([7]; planktonic A. baumannii, positive cutoff 3-fold increase, read-out: AK-based Prestwick library screening result, A. baumannii (fold increase in extracellular AK activity)): 2.9

C[N+](C)(CCOc1ccccc1)Cc1ccccc1.O=C([O-])c1cc2ccccc2cc1O [Bephenium hydroxynaphthoate]
AK-based Prestwick Library Screening Results, E. faecium (fold increase in extracellular AK activity) [1, 15]: 1.0
AK-based Prestwick Library Screening Results, E. coli (fold increase in extracellular AK activity) [2, 15]: 1.2
AK-based Prestwick Library Screening Results, S. aureus (fold increase in extracellular AK activity) [3, 15]: 1.2
AK-based Prestwick Library Screening Results, E. cloacae (fold increase in extracellular AK activity) [4, 15]: 2.0
AK-based Prestwick Library Screening Results, K. pneumoniae (fold increase in extracellular AK activity) [5, 15]: 1.0
AK-based Prestwick Library Screening Results, P. aeruginosa (fold increase in extracellular AK activity) [6, 15]: 1.0
AK-based Prestwick Library Screening Results, A. baumannii (fold increase in extracellular AK activity) [7, 15]: 0.9

CC(C)COCC(CN(Cc1ccccc1)c1ccccc1)N1CCCC1 (stereo not shown) [Bepridil hydrochloride]
fold induction at 50 µM [1, 16]: 1.1
fold induction at 50 µM [2, 17]: 1.3
fold induction at 50 µM [3, 18]: 1.6
fold induction at 50 µM [4, 19]: 1.4
fold induction at 50 µM [5, 20]: 1
fold induction at 50 µM [6, 21]: 1.2
fold induction at 50 µM [7, 22]: 1.5

COc1ccc2cc3[n+](cc2c1OC)CCc1cc2c(cc1-3)OCO2 [Berberine chloride]
fold induction at 50 µM [1, 16]: 1
fold induction at 50 µM [2, 17]: 1
fold induction at 50 µM [3, 18]: 0.7
fold induction at 50 µM [4, 19]: 1.1
fold induction at 50 µM [5, 20]: 0.7
fold induction at 50 µM [6, 21]: 0.9
fold induction at 50 µM [7, 22]: 0.9

COc1c(O)cc2c(c1O)[C@@H]1O[C@H](CO)[C@@H](O)[C@H](O)[C@H]1OC2=O [Bergenin monohydrate]
fold induction at 50 µM [1, 8]: 0.9
fold induction at 50 µM [2, 9]: 0.7
fold induction at 50 µM [3, 10]: 0.9
fold induction at 50 µM [4, 11]: 1.1
fold induction at 50 µM [5, 12]: 0.8
fold induction at 50 µM [6, 13]: 0.8
fold induction at 50 µM [7, 14]: 0.9

CC[C@H](CC[C@@H](C)[C@H]1CC[C@H]2[C@@H]3CC=C4C[C@@H](O)CC[C@]4(C)[C@H]3CC[C@]12C)C(C)C [Beta-sistosterol]
AK-based Prestwick library screening result, E. faecium (fold increase in extracellular AK activity) ([1]; planktonic E. faecium, […]): 0.9
AK-based Prestwick library screening result, E. coli (fold increase in extracellular AK activity) ([2]; planktonic E. coli, […]): 0.8
AK-based Prestwick library screening result, S. aureus (fold increase in extracellular AK activity) ([3]; planktonic S. aureus, […]): 0.7
AK-based Prestwick library screening result, E. cloacae (fold increase in extracellular AK activity) ([4]; planktonic E. cloacae, […]): 1.1
AK-based Prestwick library screening result, K. pneumoniae (fold increase in extracellular AK activity) ([5]; planktonic K. pneumoniae, […]): 0.8
AK-based Prestwick library screening result, P. aeruginosa (fold increase in extracellular AK activity) ([6]; planktonic P. aeruginosa, […]): 0.8
AK-based Prestwick library screening result, A. baumannii (fold increase in extracellular AK activity) ([7]; planktonic A. baumannii, […]): 0.8

CNCCc1ccccn1.CS(=O)(=O)O.CS(=O)(=O)O [Betahistine mesylate]
AK-based Prestwick Library Screening Results, E. faecium (fold increase in extracellular AK activity) [1, 23]: 0.9
AK-based Prestwick Library Screening Results, E. coli (fold increase in extracellular AK activity) [2, 23]: 1.4
AK-based Prestwick Library Screening Results, S. aureus (fold increase in extracellular AK activity) [3, 23]: 0.9
AK-based Prestwick Library Screening Results, E. cloacae (fold increase in extracellular AK activity) [4, 23]: 1.3
AK-based Prestwick Library Screening Results, K. pneumoniae (fold increase in extracellular AK activity) [5, 23]: 1.1
AK-based Prestwick Library Screening Results, P. aeruginosa (fold increase in extracellular AK activity) [6, 23]: 1.1
AK-based Prestwick Library Screening Results, A. baumannii (fold increase in extracellular AK activity) [7, 23]: 1.2

C[C@H]1C[C@H]2[C@@H]3CCC4=CC(=O)C=C[C@]4(C)[C@@]3(F)[C@@H](O)C[C@]2(C)[C@@]1(O)C(=O)CO [Betamethasone]
fold induction at 50 µM [1, 16]: 1.1
fold induction at 50 µM ([2]; planktonic E. coli, […], read-out: AK-based Prestwick Library Screening Results, E. coli (increase in extracellular AK activity)): 1.1
fold induction at 50 µM [3, 18]: 1.1
fold induction at 50 µM [4, 19]: 1.3
fold induction at 50 µM [5, 20]: 0.9
fold induction at 50 µM [6, 21]: 1.1
fold induction at 50 µM [7, 22]: 0.9
